Data: US20260216198A1, “GPR35 MODULATORS” (ThirtyFiveBio Limited, priority 2023, published 2026)

Molecular target: T1, GPR35 (Homo sapiens, UniProt Q9HC97)
T1 construct: expressed in transfected cells; host or cells: CHO-K1 cells co-expressing mitochondrial aequorin and Gα16
Assay: cellular GPR35 phospho-ERK HTRF assay (inhibition of lodoxamide-induced phospho-ERK signal)
Format: cell-based
Details: GPR35-CHO-K1-mt aequorin-Gα16 cell line; agonist lodoxamide at EC80; read-out: Activity Group (IC50, inhibition of GPR35 agonist-induced phospho-ERK signal)
From the text: (§1) The functional GPR35 assay as described in the accompanying examples measures the ability of GPR35 modulators to inhibit a GPR35 agonist-induced phospho-ERK signal. This is expressed as the concentration of modulator required to reduce the phospho-ERK signal by 50 percent, i.e. the IC50; the signal window being defined as the difference between agonist plus modulator vehicle (no modulator) and agonist vehicle (no agonist) controls.
as §1, with “functional” for “functional GPR35”, “assay” for “assay as”, “described” for “described in the accompanying examples”
This assay is a cellular GPR35 phospho-ERK homogeneous time resolved fluorescence (HTRF) assay using the GPR35-CHO-K1-mt aequorin-Gα16 cell line. Upon activation of GPR35 with the agonist lodoxamide at EC80 concentration, ERK 1/2 is phosphorylated, and after lysis of the cell membrane, phospho-ERK1/2 (Thr202/Tyr204) is detected in a sandwich assay using two different specific antibodies, one labelled with Eu^3+-cryptate (donor) and the second with d2 (acceptor). When the dyes are in proximity, the excitation of the donor with a light source (laser or flash lamp) triggers a Fluorescence Resonance Energy Transfer (FRET) towards the acceptor, resulting in specific acceptor fluorescence (at 665 nm). The specific signal is directly proportional to the amount of phospho-ERK1/2 (Thr202/Tyr204) in the sample. Compounds that interfere with the levels of phospho-ERK1/2 (Thr202/Tyr204) will result in a low HTRF signal.

T1 sequence (Q9HC97 whole entry): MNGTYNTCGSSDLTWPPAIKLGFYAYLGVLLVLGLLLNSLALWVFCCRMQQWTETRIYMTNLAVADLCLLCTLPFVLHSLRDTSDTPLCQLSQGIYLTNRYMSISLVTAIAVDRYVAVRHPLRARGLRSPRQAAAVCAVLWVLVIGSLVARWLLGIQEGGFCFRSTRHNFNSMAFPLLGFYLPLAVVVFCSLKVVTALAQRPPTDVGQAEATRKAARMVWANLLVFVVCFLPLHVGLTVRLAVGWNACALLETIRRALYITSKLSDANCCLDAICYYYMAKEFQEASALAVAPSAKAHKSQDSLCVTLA

| SMILES | IC50 [nM] |
| --- | --- |
| O=C(Nc1ccc(OCCc2ccccc2)cc1)c1cccc(-c2ccc(O)c(C(=O)O)c2)c1 [Example 1, 4-Hydroxy-3′-((4-phenethoxyphenyl)carbamoyl)-[1,1′-biphenyl]-3-carboxylic acid] | < 1000 |
| O=C(Nc1ccc(OCCc2ccccc2)cc1)c1cccc(-c2cnc(C3CC3)c(C(=O)O)c2)c1 [Example 2, 2-Cyclopropyl-5-(3-((4-phenethoxyphenyl)carbamoyl)phenyl)nicotinic acid] | < 1000 |
| O=C(Nc1ccc(OCCc2ccccc2)cc1)c1cccc(-c2c[nH]c(=O)c(C(=O)O)c2)c1 [Example 3, 2-oxo-5-(3-((4-Phenethoxyphenyl)carbamoyl)phenyl)-1,2-dihydropyridine-3-carboxylic acid] | < 1000 |
| O=C(Nc1ccc(OCCc2ccccc2)cc1)c1cccc(-c2cnc(C(F)(F)F)c(C(=O)O)c2)c1 [Example 4, 5-(3-((4-Phenethoxyphenyl)carbamoyl)phenyl)-2-(trifluoromethyl)nicotinic acid] | < 1000 |
| O=C(O)c1cncc(-c2cccc(C(=O)Nc3ccc(OCCc4ccccc4)cc3)c2)c1 [Example 5, 5-(3-((4-Phenethoxyphenyl)carbamoyl)phenyl)nicotinic acid] | < 1000 |
| O=C(O)Cc1cncc(-c2cccc(C(=O)Nc3ccc(OCCc4ccccc4)cc3)c2)c1 [Example 6, 2-(5-(3-((4-Phenethoxyphenyl)carbamoyl)phenyl)pyridin-3-yl)acetic acid] | < 1000 |
| O=C(Nc1ccc(OCCc2ccccc2)cc1)c1cccc(-c2ccnc(C(=O)O)n2)c1 [Example 7, 4-(3-((4-Phenethoxyphenyl)carbamoyl)phenyl)pyrimidine-2-carboxylic acid] | < 1000 |
| Cc1ccc(-c2cccc(C(=O)Nc3ccc(OCCc4ccccc4)cc3)c2)nc1C(=O)O [Example 8, 3-Methyl-6-(3-((4-phenethoxyphenyl)carbamoyl)phenyl)picolinic acid] | < 1000 |
| Nc1ncc(-c2cccc(C(=O)Nc3ccc(OCCc4ccccc4)cc3)c2)nc1C(=O)O [Example 9, 3-Amino-6-(3-((4-phenethoxyphenyl)carbamoyl)phenyl)pyrazine-2-carboxylic acid] | < 1000 |
| Cc1ncc(-c2cccc(C(=O)Nc3ccc(OCCc4ccccc4)cc3)c2)nc1C(=O)O [Example 10, 3-Methyl-6-(3-((4-phenethoxyphenyl)carbamoyl)phenyl)pyrazine-2-carboxylic acid] | < 1000 |
| O=C(Nc1ccc(OCCc2ccccc2)cc1)c1cccc(-c2cnc(F)c(C(=O)O)c2)c1 [Example 11, 2-Fluoro-5-(3-((4-phenethoxyphenyl)carbamoyl)phenyl)nicotinic acid] | < 1000 |
| Nc1ncc(-c2cccc(C(=O)Nc3ccc(OCCc4ccccc4)cc3)c2)cc1C(=O)O [Example 12, 2-Amino-5-(3-((4-phenethoxyphenyl)carbamoyl)phenyl)nicotinic acid] | < 1000 |
| O=C(O)c1ccnc(-c2cccc(C(=O)Nc3ccc(OCCc4ccccc4)cc3)c2)c1 [Example 13, 2-(3-((4-Phenethoxyphenyl)carbamoyl)phenyl)isonicotinic acid] | < 1000 |
| O=C(Nc1ccc(OCCc2ccccc2)cc1)c1cccc(-c2cncc(C(=O)O)n2)c1 [Example 14, 6-(3-((4-Phenethoxyphenyl)carbamoyl)phenyl)pyrazine-2-carboxylic acid] | < 1000 |
| Cc1ncc(-c2cccc(C(=O)Nc3ccc(OCCc4ccccc4)cc3)c2)cc1C(=O)O [Example 15, 2-Methyl-5-(3-((4-phenethoxyphenyl)carbamoyl)phenyl)nicotinic acid] | < 1000 |
| Nc1ccc(-c2cccc(C(=O)Nc3ccc(OCCc4ccccc4)cc3)c2)cc1C(=O)O [Example 16, 4-amino-3′-((4-phenethoxyphenyl)carbamoyl)-[1,1′-biphenyl]-3-carboxylic acid] | < 1000 |
| COc1ncc(-c2cccc(C(=O)Nc3ccc(OCCc4ccccc4)cc3)c2)cc1C(=O)O [Example 17, 2-Methoxy-5-(3-((4-phenethoxyphenyl)carbamoyl)phenyl)nicotinic acid] | < 1000 |
| O=C(Nc1ccc(OCCc2ccccc2)cc1)c1cccc(-c2cccc(C(=O)O)n2)c1 [Example 18, 6-(3-((4-Phenethoxyphenyl)carbamoyl)phenyl)picolinic acid] | < 1000 |
| O=C(Nc1ccc(OCCc2ccccc2)cc1)c1cccc(-c2cnc(Cl)c(C(=O)O)c2)c1 [Example 19, 2-Chloro-5-(3-((4-phenethoxyphenyl)carbamoyl)phenyl)nicotinic acid] | < 1000 |

| SMILES | IC50 [nM] |
| --- | --- |
| O=C(O)c1ccc(-c2cccc(C(=O)Nc3ccc(OCCc4ccccc4)cc3)c2)nc1 [Example 20, 6-(3-((4-Phenethoxyphenyl)carbamoyl)phenyl)nicotinic acid] | < 1000 |
| O=C(Nc1ccc(OCCc2ccccc2)cc1)c1cccc(-c2ccnc(C(=O)O)c2)c1 [Example 21, 4-(3-((4-Phenethoxyphenyl)carbamoyl)phenyl)picolinic acid] | 1000 to 10000 |
| O=C(Nc1ccc(OCCc2ccccc2)cc1)c1cccc(-c2nccc(C(=O)O)n2)c1 [Example 22, 2-(3-((4-Phenethoxyphenyl)carbamoyl)phenyl)pyrimidine-4-carboxylic acid] | < 1000 |
| O=C(Nc1ccc(OCCc2ccccc2)cc1)c1cccc(-c2ccc(C(=O)O)nc2)c1 [Example 23, 5-(3-((4-Phenethoxyphenyl)carbamoyl)phenyl)picolinic acid] | 1000 to 10000 |
| Cc1ccc(C(=O)O)nc1-c1cccc(C(=O)Nc2ccc(OCCc3ccccc3)cc2)c1 [Example 24, 5-Methyl-6-(3-((4-phenethoxyphenyl)carbamoyl)phenyl)picolinic acid] | < 1000 |
| Cc1ncc(C(=O)O)cc1-c1cccc(C(=O)Nc2ccc(OCCc3ccccc3)cc2)c1 [Example 25, 6-Methyl-5-(3-((4-phenethoxyphenyl)carbamoyl)phenyl)nicotinic acid] | 1000 to 10000 |
| O=C(Nc1ccc(OCCc2ccccc2)cc1)c1cccc(-c2ccncc2C(=O)O)c1 [Example 26, 4-(3-((4-Phenethoxyphenyl)carbamoyl)phenyl)nicotinic acid] | 1000 to 10000 |
| Cc1c(C(=O)O)cncc1-c1cccc(C(=O)Nc2ccc(OCCc3ccccc3)cc2)c1 [Example 27, 4-Methyl-5-(3-((4-phenethoxyphenyl)carbamoyl)phenyl)nicotinic acid] | 1000 to 10000 |
| O=C(Nc1ccc(OCCc2ccccc2)cc1)c1cccc(-c2cnnc(C(=O)O)c2)c1 [Example 28, 5-(3-((4-Phenethoxyphenyl)carbamoyl)phenyl)pyridazine-3-carboxylic acid] | < 1000 |
| NC(=O)c1ncc(-c2cccc(C(=O)Nc3ccc(OCCc4ccccc4)cc3)c2)cc1C(=O)O [Example 29, 2-Carbamoyl-5-(3-((4-phenethoxyphenyl)carbamoyl)phenyl)nicotinic acid] | 1000 to 10000 |
| CS(=O)(=O)Nc1ncc(-c2cccc(C(=O)Nc3ccc(OCCc4ccccc4)cc3)c2)cc1C(=O)O [Example 30, 2-(Methylsulfonamido)-5-(3-((4-phenethoxyphenyl)carbamoyl)phenyl)nicotinic acid] | < 1000 |
| Cn1cc(-c2cccc(C(=O)Nc3ccc(OCCc4ccccc4)cc3)c2)cc(C(=O)O)c1=O [Example 31, 1-Methyl-2-oxo-5-(3-((4-phenethoxyphenyl)carbamoyl)phenyl)-1,2-dihydropyridine-3-carboxylic acid] | 1000 to 10000 |
| O=C(Nc1ccc(OCCc2ccccc2)cc1)c1cccc(-c2cnc(CN3CCOCC3)c(C(=O)O)c2)c1 [Example 32, 2-(Morpholinomethyl)-5-(3-((4-phenethoxyphenyl)carbamoyl)phenyl)nicotinic acid] | 1000 to 10000 |
| O=C(Nc1ccc(OCCc2ccccc2)cc1)c1cccc(-c2cnc(N3CCOCC3)c(C(=O)O)c2)c1 [Example 33, 2-Morpholino-5-(3-((4-phenethoxyphenyl)carbamoyl)phenyl)nicotinic acid] | < 1000 |
| CNc1ncc(-c2cccc(C(=O)Nc3ccc(OCCc4ccccc4)cc3)c2)cc1C(=O)O [Example 34, 2-(Methylamino)-5-(3-((4-phenethoxyphenyl)carbamoyl)phenyl)nicotinic acid] | < 1000 |
| CN(C)c1ncc(-c2cccc(C(=O)Nc3ccc(OCCc4ccccc4)cc3)c2)cc1C(=O)O [Example 35, 2-(Dimethylamino)-5-(3-((4-phenethoxyphenyl)carbamoyl)phenyl)nicotinic acid] | < 1000 |
| O=C(Nc1ccc(OCCc2ccccc2)cc1)c1cccc(-c2cnc(NCCO)c(C(=O)O)c2)c1 [Example 36, 2-((2-Hydroxyethyl)amino)-5-(3-((4-phenethoxyphenyl)carbamoyl)phenyl)nicotinic acid] | < 1000 |
| COCCNc1ncc(-c2cccc(C(=O)Nc3ccc(OCCc4ccccc4)cc3)c2)cc1C(=O)O [Example 37, 2-((2-Methoxyethyl)amino)-5-(3-((4-phenethoxyphenyl)carbamoyl)phenyl)nicotinic acid] | < 1000 |
